From the NIST ThermoML archive (doi:10.1021/je4005883)

Key:
[1] = wn = mass fraction of the nth substance listed; settings: 101.33 kPa, Liquid; for speed of sound: Pulse-echo method; for mass density: Vibrating tube method
[2] = 298.15 K; 101.33 kPa; Liquid; Vibrating tube method

CCN1CCCC1=O [1-ethyl-2-pyrrolidinone] + NCCO
[1]
Settings | mass density, w2 = 0.7 [kg/m3] | mass density, w2 = 0.8 [kg/m3] | mass density, w2 = 0.9 [kg/m3] | speed of sound, w2 = 0.7 [m/s] | speed of sound, w2 = 0.8 [m/s] | speed of sound, w2 = 0.9 [m/s] | viscosity, w2 = 0.7 [mPa·s] | viscosity, w2 = 0.8 [mPa·s] | viscosity, w2 = 0.9 [mPa·s]
293.15 K | 1009.04 | 1011.7 | 1014.01 | 1653.3 | 1679.7 | 1706.9 | 12.25 | 16.01 | 19.95
303.15 K | 1000.7 | 1003.49 | 1005.95 | 1618.6 | 1645.9 | 1674 | 8.104 | 10.27 | 12.48
313.15 K | 992.31 | 995.23 | 997.83 | 1584 | 1611.7 | 1641.2 | 5.666 | 6.967 | 8.35
323.15 K | 983.87 | 986.93 | 989.65 | 1549.5 | 1578.2 | 1608 | 4.173 | 5.017 | 5.863

CCN1CCCC1=O [1-ethyl-2-pyrrolidinone] + O
[1]
Settings | mass density, w2 = 0.7 [kg/m3] | mass density, w2 = 0.8 [kg/m3] | mass density, w2 = 0.9 [kg/m3] | speed of sound, w2 = 0.7 [m/s] | speed of sound, w2 = 0.8 [m/s] | speed of sound, w2 = 0.9 [m/s] | viscosity, w2 = 0.7 [mPa·s] | viscosity, w2 = 0.8 [mPa·s] | viscosity, w2 = 0.9 [mPa·s]
293.15 K | 1013.82 | 1007.67 | 1002.08 | 1671.7 | 1620 | 1555.7 | 2.857 | 2.068 | 1.474
303.15 K | 1008.12 | 1003.22 | 998.33 | 1658.9 | 1620 | 1568.9 | 2.03 | 1.52 | 1.123
313.15 K | 1001.9 | 998.11 | 994.6 | 1644 | 1616.3 | 1576.8 | 1.522 | 1.176 | 0.891
323.15 K | 995.12 | 992.41 | 989.74 | 1627.1 | 1608.9 | 1580.3 | 1.196 | 0.942 | 0.73

NCCO [2-aminoethan-1-ol]
Settings | mass density [kg/m3]
[2] | 1011.98
